Data taken from PMC9097457 (The Journal of Biological Chemistry, 2022).

Assays:
[1] = molecular target: T1, deoxyguanosine kinase (dGK) (Rattus norvegicus, UniProt A0A0G2K478); assay: Pilot study: effect of 100 μM dG/dA nucleoside analogs on [3H]-dG or [3H]-dA phosphorylation in isolated mitochondria; type: biochemical; settings: 100 μM analog; [3H]-dG 0.5 μM in liver, kidney, heart, brain mitochondria; [3H]-dA in liver mitochondria; 2 h; + EHNA 5 μM, I-H 2 μM
T1 sequence (A0A0G2K478 with tags, fused parts or gaps): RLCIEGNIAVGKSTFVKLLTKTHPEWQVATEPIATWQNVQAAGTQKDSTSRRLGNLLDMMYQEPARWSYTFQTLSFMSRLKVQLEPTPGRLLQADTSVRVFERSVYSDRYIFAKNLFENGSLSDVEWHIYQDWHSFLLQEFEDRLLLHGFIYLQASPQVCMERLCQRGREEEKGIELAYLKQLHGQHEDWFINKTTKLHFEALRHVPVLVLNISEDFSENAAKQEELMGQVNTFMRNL
Protocol: Immucillin-H (I-H) (2 μM) and EHNA (5 μM) were added to the incubation mixture to prevent the breakdown of substrate by purine nucleoside phosphorylase (PNP) and adenosine deaminase (ADA) activity, respectively.
(§1) To measure and compare phosphorylation and kinetics, a stable substrate concentration was necessary and EHNA (5 μM) ([50]) and I-H (2.0 μM) ([49]) were added to all mitochondrial incubations. […] The mitochondria were incubated in vitro for up to 2 h at 37 °C in a shaker bath. At the end of the incubation, reactions were terminated by addition of 10% TCA to an equal volume of incubation mixture (175 μl) and spun in a microcentrifuge to remove precipitates. The supernatant was neutralized with AG 11 A8 resin and filtered through a […] nylon syringe filter. The neutralized and filtered supernatants were analyzed by ultra high pressure liquid chromatography (UPLC). Radioactivity was determined from aliquots of each sample and processed through a Beckman Coulter multipurpose liquid scintillation counter (model 6500).
Extent of phosphorylation was measured and analyzed by UPLC (Agilent 1290) with a reverse-phase C18 column (Zorbax Eclipse Plus C18; 3.0 × 150 mm, 1.8 micron) coupled with an inline diode array to detect UV signal at 254 nm and to an inline liquid scintillation counter (β-Ram) to quantitate radioactivity.
The radioactivity in each of these peaks was quantitated and totaled to provide the total amount of radioactivity in the phosphorylated products for each labeled precursor. This total was divided by the specific radioactivity of the precursor and expressed as pmol/mg protein/hr. The Kms were calculated from Lineweaver–Burk plots 1/Vo=Km/Vmax[S]+1/Vmax

[2] = test system: heart mitochondria; assay: Conversion of [3H]-dGMP to [3H]-dGTP in isolated heart mitochondria; type: biochemical, rat
Protocol: Thus, we were interested in determining if the dGTP and dATP phosphorylation pathway in isolated mitochondria functioned similarly.
[^3H]-dGMP (1 μM) or [^3H]-dAMP (1 μM) was incubated in heart mitochondria as described for Figure 1 for the times shown, and their conversion to [^3H]-dGTP and [^3H]-dATP, respectively, determined in the presence and absence of Ap5A ([…]), a competitive inhibitor of adenylate kinase. Data are shown as a box plot of two independent experiments. The thickness of the lines indicates the spread of the duplicates. Ap5A, P1,P5-di(adenosine-5) pentaphosphate pentasodium salt.
as §1

| Structure (SMILES) | inhibition of the phosphorylation of dA and dG [1] | further results |
| --- | --- | --- |
| Nc1nc(=O)c2ncn([C@@H]3C[C@H](CO)[C@H]3CO)c2[nH]1 [lobucavir] | ETV was shown to be the only dG/dA analog of the eight tested that showed significant inhibition | – |
| Nc1nc(O)c2ncn(COC(CO)CO)c2n1 [ganciclovir] | ETV was shown to be the only dG/dA analog of the eight tested that showed significant inhibition | – |
| C[C@H](Cn1cnc2c(N)ncnc21)OCP(=O)(O)O [tenofovir] | ETV was shown to be the only dG/dA analog of the eight tested that showed significant inhibition | – |
| Nc1nc2c(ncn2CCC(CO)CO)c(=O)[nH]1 [penciclovir] | ETV was shown to be the only dG/dA analog of the eight tested that showed significant inhibition | – |
| Nc1ncnc2c1ncn2CCOCP(=O)(O)O [adefovir] | ETV was shown to be the only dG/dA analog of the eight tested that showed significant inhibition | – |
| CC(C)OC(=O)OCOP(=O)(CO[C@H](C)Cn1cnc2c(N)ncnc21)OCOC(=O)OC(C)C.O=C(O)/C=C/C(=O)O [TDF, tenofovir disproxil fumarate] | ETV was shown to be the only dG/dA analog of the eight tested that showed significant inhibition | – |
| Nc1nc2c(ncn2[C@H]2C[C@H](O)[C@@H](COP(=O)(O)O)O2)c(=O)[nH]1 [dGMP] | – | plateau, complete conversion of [3H]-dGMP to [3H]-dGTP ([2]; 1 μM): 123 ± 1 pmol/mg protein; conversion to [3H]-dGTP at the 30-min time point ([2]; 1 μM precursor): 106 ± 4 pmol/mg protein; conversion of dGMP to dGTP faster than conversion of dG to dGTP ([2]; 30 min): 4.6 times |
| Nc1nc2c(ncn2[C@H]2CC[C@@H](CO)O2)c(=O)[nH]1 [dideoxyguanosine] | ETV was shown to be the only dG/dA analog of the eight tested that showed significant inhibition | – |
